Test results as given in patent US9296759B2, “Amino-oxazine and amino-dihydrothiazine compounds as beta-secretase modulators and methods of use” (AMGEN INC., priority 2011, dated 2016).
Where two headings read alike, the source gives them in different places.

What was measured:
[1] = biological target: BACE 1 (beta secretase enzyme) (Homo sapiens (Human), UniProt P56817); assay: In vitro enzymatic BACE FRET assay; format: biochemical; conditions: average IC50
In short: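 The enzyme was tested in 0.05 M acetate, pH 4.2, with 10% DMSO final and 100 uM genapol. The reaction was started with 50 nM quenched FRET peptide substrate, incubated one hour and stopped with Tris to neutral pH. Cleavage was read as fluorescence ([…]).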

[2] = test system: Aβ40 in conditioned medium of cells stably expressing Amyloid Precursor Protein (APP); assay: In vitro BACE cell-based assay (HEK cell assay, Aβ40 sandwich ELISA); conditions: Homo sapiens, HEK293; average IC50, Aβ40, 24 h incubation
In short: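 Secreted Aβ40 was quantified by sandwich ELISA (pAb40 capture, biotinylated 6E10 detection, Europium time-resolved fluorescence). IC50 derived from percent inhibition versus concentration.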

[3] = test system: Abeta 40; assay: In vivo inhibition of beta-secretase: Abeta 40 reduction in CSF and brain of the rat; conditions: 10 mpk, after 4 hrs
Excerpt: In Vivo Inhibition of Beta-Secretase
Several animal models, including mouse, rat, dog, and monkey, may be used to screen for inhibition of beta-secretase activity in vivo following administration of a test compound sample. Animals used in this invention can be wild type, transgenic, or gene knockout animals. For example, the Tg2576 mouse model, prepared and conducted as described in Hsiao et al., 1996, Science 274, 99-102, and other non-transgenic or gene knockout animals are useful to analyze in vivo inhibition of Amyloid beta peptide (Abeta) production in the presence of inhibitory test compounds. Generally, 2 to 18 month old Tg2576 mice, gene knockout mice or non-transgenic animals are administered test compounds formulated in vehicles, such as cyclodextran, phosphate buffers, hydroxypropyl methylcellulose or other suitable vehicles. One to twenty-four hours following the administration of compound, animals are sacrificed, and brains as well as cerebrospinal fluid (CSF) and plasma are removed for analysis of A-beta levels and drug or test compound concentrations (Dovey et al., 2001, Journal of Neurochemistry, 76, 173-181) Beginning at time 0, animals are administered by oral gavage, or other means of delivery such as intravenous injection, an inhibitory test compound of up to 100 mg/kg in a standard, conventional formulation, such as 2% hydroxypropyl methylcellulose, 1% Tween80. A separate group of animals receive 2% hydroxypropyl methylcellulose, 1% Tween80 alone, containing no test compound, and serve as a vehicle-control group. At the end of the test period, animals are sacrificed and brain tissues, plasma or cerebrospinal fluid are collected. Brains are either homogenized in 10 volumes (w/v) of 0.2% diethylamine (DEA) in 50 mM NaCl (Best et al., 2005, Journal of Pharmacology and Experimental Therapeutics, 313, 902-908), or in 10 volumes of 0.5% TritonX-100 in Tris-buffered saline (pH at about 7.6). Homogenates are centrifuged at 355,000 g, 4° C. for 30 minutes. CSF or brain supernatants are then analyzed for the presence of A-beta peptide by specific sandwich ELISA assays based on ECL (Electrochemiluminescence) technology. For example, rat Abeta40 is measured using biotinylated-4G8 (Signet) as a capture antibody and Fab40 (an in-house antibody specific to the C-terminal of Abeta40) as a detection antibody. For example, 4 hours after administration of 30 mg/kg oral dose of the test compound in 2% hydroxypropyl methylcellulose, 1% Tween80 (pH2.2) to 200 g male Sprague Dawley rats, amyloid beta peptide levels are measured for reduction by X % and Y % in cerebrospinal fluid and brain, respectively, when compared to the levels measured in the vehicle-treated rats.
• Oral: 2% HPMC, 1% Tween80, pH 2.2 • IV: 5% EtOH, 45% Propylene glycol in 5% Dextrose
The compounds of the invention may be shown to reduce the formation and/or deposition of amyloid beta peptide in the cerebrospinal fluid (CSF) as well as in the brain of a mouse or rat at either 3 mpk, 10 mpk or 30 mpk (mpk=mg compound per kg weight of the animal) dosing concentrations after 4 hrs.

[4] = biological target: Cathepsin D (Homo sapiens (Human), UniProt P07339); assay: In vitro enzymatic Cat D (Cathepsin D) FRET assay; format: biochemical; conditions: average IC50
In short: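 CHO-expressed recombinant enzyme in 0.05 M citrate pH 3.5, 5 mM CHAPS, 10% DMSO final; reaction started with 20 nM quenched-peptide FRET substrate (cleavage site spanned by fluorophore/quencher), 1 h incubation.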

[5] = Abeta 40, rat CSF, read-out: % reduction of rat CSF levels at 10 pmk
[6] = Abeta 40, rat brain, read-out: % reduction of rat brain levels at 10 mpk

Chain of Cathepsin D (P07339 65-412, species assumed): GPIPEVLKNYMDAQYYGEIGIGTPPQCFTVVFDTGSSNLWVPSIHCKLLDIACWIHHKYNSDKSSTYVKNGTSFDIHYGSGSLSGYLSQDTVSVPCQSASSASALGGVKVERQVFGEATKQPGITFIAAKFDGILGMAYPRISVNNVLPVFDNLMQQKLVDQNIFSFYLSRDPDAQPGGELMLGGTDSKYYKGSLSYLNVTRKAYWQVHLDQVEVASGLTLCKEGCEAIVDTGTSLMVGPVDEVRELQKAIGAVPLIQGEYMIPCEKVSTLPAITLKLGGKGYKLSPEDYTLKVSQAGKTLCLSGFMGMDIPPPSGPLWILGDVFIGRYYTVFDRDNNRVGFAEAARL
Chain of BACE 1 (beta secretase enzyme) (P56817 46-501): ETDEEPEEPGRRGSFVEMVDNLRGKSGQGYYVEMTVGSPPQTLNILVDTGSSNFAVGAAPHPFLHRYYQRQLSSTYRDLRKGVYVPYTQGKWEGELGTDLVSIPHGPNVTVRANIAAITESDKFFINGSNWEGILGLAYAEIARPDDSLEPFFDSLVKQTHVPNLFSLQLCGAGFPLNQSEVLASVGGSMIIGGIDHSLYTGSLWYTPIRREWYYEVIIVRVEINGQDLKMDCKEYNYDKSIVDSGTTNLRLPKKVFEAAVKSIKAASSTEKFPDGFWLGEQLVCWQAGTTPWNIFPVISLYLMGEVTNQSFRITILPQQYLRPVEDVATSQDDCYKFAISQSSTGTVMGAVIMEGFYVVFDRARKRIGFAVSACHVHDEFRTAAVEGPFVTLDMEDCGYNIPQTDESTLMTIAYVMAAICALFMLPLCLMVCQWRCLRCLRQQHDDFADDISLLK

COc1cnc(C(=O)Nc2ccc3c(c2)[C@@]2(CCOC(N)=N2)c2cc(C4=CCCOC4)ncc2O3)cn1 [Example 58, N-((5S)-2′-amino-3-(5,6-dihydro-2H-pyran-3-yl)-5′,6′-dihydrospiro[chromeno[2,3-c]pyridine-5,4′-[1,3]oxazin]-7-yl)-5-methoxy-2-pyrazinecarboxamide]
IC50 [1]: 9.4 nM
IC50 [2]: 1.1 nM
inhibition in vivo at 10 mg/kg [3, 5]: 55%
inhibition in vivo at 10 mg/kg [3, 6]: 36%

COc1cnc(C(=O)Nc2ccc3c(c2)[C@@]2(CCOC(N)=N2)c2cc(C4=CCCOC4)cc(F)c2O3)cn1 [Example 106, N-((4S)-2-amino-7′-(5,6-dihydro-2H-pyran-3-yl)-5′-fluoro-5,6-dihydrospiro[1,3-oxazine-4,9′-xanthen]-2′-yl)-5-methoxy-2-pyrazinecarboxamide]
IC50 [2]: 1.6 nM
IC50 [4]: 107000 nM
inhibition in vivo at 10 mg/kg [3, 5]: 43%
inhibition in vivo at 10 mg/kg [3, 6]: 16%

NC1=N[C@@]2(CCO1)c1cc(NC(=O)c3ccc(Cl)cn3)ccc1Oc1c2cc(C2CC2)nc1F [Example 40, N-((5S)-2′-amino-3-cyclopropyl-1-fluoro-5′,6′-dihydrospiro[chromeno[2,3-c]pyridine-5,4′-[1,3]oxazin]-7-yl)-5-chloro-2-pyridinecarboxamide]
IC50 [1]: 2.4 nM
IC50 [2]: 3.4 nM
inhibition in vivo at 10 mg/kg [3, 5]: 75%
inhibition in vivo at 10 mg/kg [3, 6]: 58%

NC1=N[C@@]2(CCS1)c1cc(NC(=O)c3ccc(F)cn3)ccc1Oc1c2cc(C2=CCOCC2)nc1F [Example 116, N-((5S)-2′-amino-3-(3,6-dihydro-2H-pyran-4-yl)-1-fluoro-5′,6′-dihydrospiro[chromeno[2,3-c]pyridine-5,4′-[1,3]thiazin]-7-yl)-5-fluoro-2-pyridinecarboxamide]
IC50 [1]: 1 nM
IC50 [2]: 0.6 nM
inhibition in vivo at 10 mg/kg [3, 5]: 73%
inhibition in vivo at 10 mg/kg [3, 6]: 56%

NC1=N[C@@]2(CCO1)c1cc(NC(=O)c3ccc(Cl)cn3)ccc1Oc1ncc(C3=CCOCC3)cc12 [Example 45, N-((5S)-2′-amino-3-(3,6-dihydro-2H-pyran-4-yl)-5′,6′-dihydrospiro[chromeno[2,3-b]pyridine-5,4′-[1,3]oxazin]-7-yl)-5-chloro-2-pyridinecarboxamide]
IC50 [2]: 0.6 nM
IC50 [4]: 341000 nM
inhibition in vivo at 10 mg/kg [3, 5]: 27%
inhibition in vivo at 10 mg/kg [3, 6]: 14%

NC1=N[C@@]2(CCS1)c1cc(NC(=O)c3ncc(Cl)cc3F)ccc1Oc1c2cc(C2=CCOCC2)nc1F [Example 119, N-((5S)-2′-amino-3-(3,6-dihydro-2H-pyran-4-yl)-1-fluoro-5′,6′-dihydrospiro[chromeno[2,3-c]pyridine-5,4′-[1,3]thiazin]-7-yl)-5-chloro-3-fluoro-2-pyridinecarboxamide]
IC50 [1]: 2.6 nM
IC50 [2]: 0.6 nM
IC50 [4]: 311000 nM

COc1cnc(C(=O)Nc2ccc3c(c2)[C@@]2(CCSC(N)=N2)c2cc(N4CCOCC4)cc(F)c2O3)cn1 [Example 110, N-((4S)-2-amino-5′-fluoro-7′-(4-morpholinyl)-5,6-dihydrospiro[1,3-thiazine-4,9′-xanthen]-2′-yl)-5-methoxy-2-pyrazinecarboxamide]
IC50 [1]: 15.3 nM
IC50 [2]: 7.7 nM
IC50 [4]: 229000 nM

Cc1cc(Br)cnc1C(=O)Nc1ccc2c(c1)[C@@]1(CCSC(N)=N1)c1cc(C3=CCOCC3)nc(F)c1O2 [Example 120, N-((5S)-2′-amino-3-(3,6-dihydro-2H-pyran-4-yl)-1-fluoro-5′,6′-dihydrospiro[chromeno[2,3-c]pyridine-5,4′-[1,3]thiazin]-7-yl)-5-bromo-3-methyl-2-pyridinecarboxamide]
IC50 [1]: 1.4 nM
IC50 [2]: 0.5 nM
IC50 [4]: 88300 nM

COc1cnc(C(=O)Nc2ccc3c(c2)[C@@]2(CCSC(N)=N2)c2cc(C4=CCOCC4)nc(F)c2O3)c(C)c1 [Example 121, N-((5S)-2′-amino-3-(3,6-dihydro-2H-pyran-4-yl)-1-fluoro-5′,6′-dihydrospiro[chromeno[2,3-c]pyridine-5,4′-[1,3]thiazin]-7-yl)-5-methoxy-3-methyl-2-pyridinecarboxamide]
IC50 [1]: 5.4 nM
IC50 [2]: 1.8 nM
IC50 [4]: 159000 nM

NC1=N[C@@]2(CCS1)c1cc(NC(=O)c3ccc(Cl)cn3)ccc1Oc1c2cc(C2=CCOCC2)nc1F [Example 117, N-((5S)-2′-amino-3-(3,6-dihydro-2H-pyran-4-yl)-1-fluoro-5′,6′-dihydrospiro[chromeno[2,3-c]pyridine-5,4′-[1,3]thiazin]-7-yl)-5-chloro-2-pyridinecarboxamide]
IC50 [2]: 0.6 nM
IC50 [4]: 133000 nM
inhibition in vivo at 10 mg/kg [3, 5]: 80%
inhibition in vivo at 10 mg/kg [3, 6]: 70%

COc1cnc(C(=O)Nc2ccc3c(c2)[C@@]2(CCOC(N)=N2)c2cc(C#CC(C)(C)C)ncc2O3)cn1 [Example 86, N-((5S)-2′-amino-3-(3,3-dimethyl-1-butyn-1-yl)-5′,6′-dihydrospiro[chromeno[2,3-c]pyridine-5,4′-[1,3]oxazin]-7-yl)-5-methoxy-2-pyrazinecarboxamide]
IC50 [1]: 12 nM
IC50 [2]: 1.2 nM
IC50 [4]: 452000 nM

N#Cc1ccc(C(=O)Nc2ccc3c(c2)[C@@]2(CCOC(N)=N2)c2cc(Cl)nc(F)c2O3)nc1 [Example 46, N-((5S)-2′-amino-3-chloro-1-fluoro-5′,6′-dihydrospiro[chromeno[2,3-c]pyridine-5,4′-[1,3]oxazin]-7-yl)-5-cyano-2-pyridinecarboxamide]
IC50 [1]: 7 nM
IC50 [2]: 23 nM
IC50 [4]: > 400000 nM

COc1nc(C2CC2)cc2c1Oc1ccc(NC(=O)c3ccc(Cl)cn3)cc1[C@@]21CCOC(N)=N1 [Example 53, N-((5S)-2′-amino-3-cyclopropyl-1-methoxy-5′,6′-dihydrospiro[chromeno[2,3-c]pyridine-5,4′-[1,3]oxazin]-7-yl)-5-chloro-2-pyridinecarboxamide]
IC50 [1]: 12.9 nM
IC50 [2]: 22.7 nM
IC50 [4]: > 400000 nM

NC1=N[C@@]2(CCO1)c1cc(NC(=O)c3cnc(O)cn3)ccc1Oc1ncc(Br)cc12 [Example 43, N-((5S)-2′-amino-3-bromo-5′,6′-dihydrospiro[chromeno[2,3-b]pyridine-5,4′-[1,3]oxazin]-7-yl)-5-hydroxy-2-pyrazinecarboxamide]
IC50 [1]: 113 nM
IC50 [2]: 1660 nM
IC50 [4]: > 4940 nM

Cc1cc(Cl)cnc1C(=O)Nc1ccc2c(c1)[C@@]1(CCSC(N)=N1)c1cc(C3=CCOCC3)nc(F)c1O2 [Example 122, N-((5S)-2′-amino-3-(3,6-dihydro-2H-pyran-4-yl)-1-fluoro-5′,6′-dihydrospiro[chromeno[2,3-c]pyridine-5,4′-[1,3]thiazin]-7-yl)-5-chloro-3-methyl-2-pyridinecarboxamide]
IC50 [1]: 2.9 nM
IC50 [2]: 0.8 nM
IC50 [4]: 133000 nM

COc1cnc(C(=O)Nc2ccc3c(c2)[C@]2(CCSC(N)=N2)c2cc(Cl)nc(F)c2O3)cn1 [Example 55, N-((5R)-2′-amino-3-chloro-1-fluoro-5′,6′-dihydrospiro[chromeno[2,3-c]pyridine-5,4′-[1,3]thiazin]-7-yl)-5-methoxy-2-pyrazinecarboxamide]
IC50 [1]: 913 nM
IC50 [2]: 3090 nM
IC50 [4]: 69900 nM
